In assay [1] the target is T1, PAK2 (Homo sapiens, UniProt Q13177).
T1 construct: purchased DiscoveRx KINOMEscan (Ambit Biosciences)
Set-up: method as in earlier work. To be noted: Table S1; cited from earlier work.

Assay [2] deals with T2, MAP4K4 (Homo sapiens, UniProt O95819).
T2 construct: purchased DiscoveRx KINOMEscan (Ambit Biosciences)
The assay can be described thus: KINOMEscan panel screen. It is filed as binding. To be noted: read-out: Percent Control(%).

Assay [3] addresses T3, SBK1 (Homo sapiens, UniProt Q52WX2).
T3 construct: purchased DiscoveRx KINOMEscan (Ambit Biosciences)
The assay can be described thus: KINOMEscan panel screen. It is filed as binding. To be noted: read-out: Percent Control(%).

Assay [4] has as its target T4, EPHB4 (Homo sapiens, UniProt P54760).
T4 construct: purchased DiscoveRx KINOMEscan (Ambit Biosciences)
The assay can be described thus: KINOMEscan panel screen. The settings on record: read-out: Percent Control(%). It is filed as binding.

In assay [5] the target is T5, DCAMKL2 (Homo sapiens, UniProt Q8N568).
T5 construct: purchased DiscoveRx KINOMEscan (Ambit Biosciences)
In words: KINOMEscan panel screen. It counts as binding. To be noted: read-out: Percent Control(%).

Assay [6] relates to B16. The assay can be described thus: MTT cell viability assay. The settings on record: Mus musculus, B16, 72 h.
The target in assay [7] is T6, ERK8 (Homo sapiens, UniProt Q8TD08).
T6 construct: purchased DiscoveRx KINOMEscan (Ambit Biosciences)
In words: KINOMEscan panel screen. It is filed as binding. To be noted: read-out: Percent Control(%).

The test system of assay [8] is SU-DHL-6. The assay can be described thus: MTT cell viability assay. The settings on record: Homo sapiens, SU-DHL-6, 72 h.
The target of assay [9] is T7, EPHA4 (Homo sapiens, UniProt P54764).
T7 construct: purchased DiscoveRx KINOMEscan (Ambit Biosciences)
The assay can be described thus: KINOMEscan panel screen. It counts as binding. The settings on record: read-out: Percent Control(%).

Assay [10] has as its target T8, PIK3CB (Homo sapiens, UniProt P42338).
T8 construct: purchased DiscoveRx KINOMEscan (Ambit Biosciences)
In words: KINOMEscan panel screen. It counts as binding. The settings on record: read-out: Percent Control(%).

For assay [11], the target named is T1, PAK2. The assay can be described thus: KINOMEscan panel screen. It counts as binding. To be noted: read-out: Percent Control(%).
In assay [12] the target is FLT3-ITD (Homo sapiens, UniProt P36888, ITD). In words: biochemical. It is filed as binding.
Assay [13] has as its target T9, ABL1-phosphorylated (Homo sapiens, UniProt P00519).
T9 construct: purchased DiscoveRx KINOMEscan (Ambit Biosciences)
In words: KINOMEscan panel screen. It is filed as binding. To be noted: read-out: Percent Control(%).

Assay [14] has as its target T10, SgK110 (Homo sapiens, UniProt P0C264).
T10 construct: purchased DiscoveRx KINOMEscan (Ambit Biosciences)
In words: KINOMEscan panel screen. It is filed as binding. The settings on record: read-out: Percent Control(%).

Assay [15] concerns the target T11, MRCKB (Homo sapiens, UniProt Q9Y5S2).
T11 construct: purchased DiscoveRx KINOMEscan (Ambit Biosciences)
In words: KINOMEscan panel screen. It is filed as binding. To be noted: read-out: Percent Control(%).

Assay [16] concerns the target T12, KIT(V559D,V654A) (Homo sapiens, UniProt P10721, V559D/V654A).
T12 construct: purchased DiscoveRx KINOMEscan (Ambit Biosciences)
The assay can be described thus: KINOMEscan panel screen. It is filed as binding. To be noted: read-out: Percent Control(%).

Assay [17] deals with T13, MYO3A (Homo sapiens, UniProt Q8NEV4).
T13 construct: purchased DiscoveRx KINOMEscan (Ambit Biosciences)
In words: KINOMEscan panel screen. It counts as binding. The settings on record: read-out: Percent Control(%).

In assay [18] the target is T14, ICK (Homo sapiens, UniProt Q9UPZ9).
T14 construct: purchased DiscoveRx KINOMEscan (Ambit Biosciences)
In words: KINOMEscan panel screen. It is filed as binding. The settings on record: read-out: Percent Control(%).

In assay [19] the target is T15, PIP5K1C (Homo sapiens, UniProt O60331).
T15 construct: purchased DiscoveRx KINOMEscan (Ambit Biosciences)
T15 sequence (O60331 whole entry): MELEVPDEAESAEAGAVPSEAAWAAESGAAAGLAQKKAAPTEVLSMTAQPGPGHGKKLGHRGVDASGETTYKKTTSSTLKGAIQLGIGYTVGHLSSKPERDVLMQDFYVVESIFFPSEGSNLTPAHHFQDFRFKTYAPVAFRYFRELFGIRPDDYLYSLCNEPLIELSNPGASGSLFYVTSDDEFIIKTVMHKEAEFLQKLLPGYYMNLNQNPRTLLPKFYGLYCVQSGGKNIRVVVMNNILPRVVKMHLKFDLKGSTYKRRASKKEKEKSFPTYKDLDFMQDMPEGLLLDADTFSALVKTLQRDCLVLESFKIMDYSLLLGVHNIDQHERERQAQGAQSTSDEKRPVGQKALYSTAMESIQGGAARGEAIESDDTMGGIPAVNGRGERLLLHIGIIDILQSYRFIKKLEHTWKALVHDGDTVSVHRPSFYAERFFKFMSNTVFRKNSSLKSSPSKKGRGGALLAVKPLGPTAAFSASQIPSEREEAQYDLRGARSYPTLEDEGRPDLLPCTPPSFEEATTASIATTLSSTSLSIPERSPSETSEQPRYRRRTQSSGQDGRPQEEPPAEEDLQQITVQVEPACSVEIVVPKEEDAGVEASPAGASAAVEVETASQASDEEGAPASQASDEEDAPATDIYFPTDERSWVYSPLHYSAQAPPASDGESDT
In words: KINOMEscan panel screen. It counts as binding. To be noted: read-out: Percent Control(%).

For assay [20], the target named is T16, MAP4K3 (Homo sapiens, UniProt Q8IVH8).
T16 construct: purchased DiscoveRx KINOMEscan (Ambit Biosciences)
The assay can be described thus: KINOMEscan panel screen. To be noted: read-out: Percent Control(%). It counts as binding.

Assay [21] deals with T17, VEGFR2 (Homo sapiens, UniProt P35968).
T17 construct: DNA tag (qPCR read-out); purchased Ambit Biosciences (KINOMEscan service)
The assay can be described thus: KINOMEscan kinase binding assay (Kd).

In assay [22] the target is T18, CDK8 (Homo sapiens, UniProt P49336).
T18 construct: purchased DiscoveRx KINOMEscan (Ambit Biosciences)
The assay can be described thus: KINOMEscan panel screen. It is filed as binding. To be noted: read-out: Percent Control(%).

The target of assay [23] is T19, ITK (Homo sapiens, UniProt Q08881).
T19 construct: purchased DiscoveRx KINOMEscan (Ambit Biosciences)
T19 sequence (Q08881 whole entry): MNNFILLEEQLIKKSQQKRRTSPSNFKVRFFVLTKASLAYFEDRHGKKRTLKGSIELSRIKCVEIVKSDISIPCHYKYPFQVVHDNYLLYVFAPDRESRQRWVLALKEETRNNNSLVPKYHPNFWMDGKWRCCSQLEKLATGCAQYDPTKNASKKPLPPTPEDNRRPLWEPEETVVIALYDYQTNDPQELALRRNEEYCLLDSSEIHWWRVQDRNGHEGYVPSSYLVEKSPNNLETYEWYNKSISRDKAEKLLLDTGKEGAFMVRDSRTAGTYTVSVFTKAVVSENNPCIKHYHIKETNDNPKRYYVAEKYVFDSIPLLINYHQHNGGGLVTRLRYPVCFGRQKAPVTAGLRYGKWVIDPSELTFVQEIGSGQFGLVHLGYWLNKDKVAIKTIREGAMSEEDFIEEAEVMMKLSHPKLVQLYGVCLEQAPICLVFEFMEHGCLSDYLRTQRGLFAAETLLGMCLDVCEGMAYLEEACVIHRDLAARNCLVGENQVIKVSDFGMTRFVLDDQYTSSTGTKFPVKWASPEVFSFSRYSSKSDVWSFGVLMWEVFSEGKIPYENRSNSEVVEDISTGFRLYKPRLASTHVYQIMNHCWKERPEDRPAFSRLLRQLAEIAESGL
The assay can be described thus: KINOMEscan panel screen. It is filed as binding. The settings on record: read-out: Percent Control(%).

Assay [24] deals with T20, ADCK4 (Homo sapiens, UniProt Q96D53).
T20 construct: purchased DiscoveRx KINOMEscan (Ambit Biosciences)
The assay can be described thus: KINOMEscan panel screen. It is filed as binding. The settings on record: read-out: Percent Control(%).

Assay [25] concerns the target T21, RSK1(Kin.Dom.2-C-terminal) (Homo sapiens, UniProt Q15418).
T21 construct: RSK1(Kin.Dom.2-C-terminal); purchased DiscoveRx KINOMEscan (Ambit Biosciences)
In words: KINOMEscan panel screen. The settings on record: read-out: Percent Control(%). It counts as binding.

Assay [26] deals with T22, MAST1 (Homo sapiens, UniProt Q9Y2H9).
T22 construct: purchased DiscoveRx KINOMEscan (Ambit Biosciences)
The assay can be described thus: KINOMEscan kinase binding assay (Kd).

The target in assay [27] is T23, ROCK2 (Homo sapiens, UniProt O75116).
T23 construct: purchased DiscoveRx KINOMEscan (Ambit Biosciences)
In words: KINOMEscan panel screen. It counts as binding. To be noted: read-out: Percent Control(%).

In assay [28] the test system is normal PBMCs. In words: CellTiterGlo viability assay, normal PBMCs. It is filed as cell-based, human. The settings on record: 72 h. An excerpt:
The patients’ information is listed in Supplementary Table S5. For comparison, three normal PB samples were also collected (sample #7, #8, #9). Peripheral blood mononuclear cells (PBMCs) were isolated from each sample in the following assays.
Methods used in this study were approved by the Ethics Committee of the West China Hospital. Informed consent for the use of human AML and normal peripheral blood (PB) samples for the present study was obtained from all patients according to the Declaration of Helsinki.
Effects of compounds on the PBMC viability were examined using CellTiterGlo (Promega) assays. […] The signal from the viable cells was assessed according to the manufacturer’s protocol.
Background: Cellular ATP, detected with luciferase, serves as a proxy for viable cell number.

Assay [29] addresses T24, FYN (Homo sapiens, UniProt P06241).
T24 construct: purchased DiscoveRx KINOMEscan (Ambit Biosciences)
In words: KINOMEscan panel screen. It counts as binding. To be noted: read-out: Percent Control(%).

Assay [30] has as its target T25, LATS1 (Homo sapiens, UniProt O95835).
T25 construct: purchased DiscoveRx KINOMEscan (Ambit Biosciences)
The assay can be described thus: KINOMEscan panel screen. It is filed as binding. The settings on record: read-out: Percent Control(%).

The target in assay [31] is T26, JAK1(JH2domain-pseudokinase) (Homo sapiens, UniProt P23458).
T26 construct: JAK1(JH2domain-pseudokinase); purchased DiscoveRx KINOMEscan (Ambit Biosciences)
In words: KINOMEscan panel screen. It is filed as binding. The settings on record: read-out: Percent Control(%).

Assay [32] concerns the target T27, MKNK2 (Homo sapiens, UniProt Q9HBH9).
T27 construct: purchased DiscoveRx KINOMEscan (Ambit Biosciences)
The assay can be described thus: KINOMEscan panel screen. It counts as binding. The settings on record: read-out: Percent Control(%).

Assay [33] deals with T28, PAK3 (Homo sapiens, UniProt O75914).
T28 construct: purchased DiscoveRx KINOMEscan (Ambit Biosciences)
T28 sequence (O75914 whole entry): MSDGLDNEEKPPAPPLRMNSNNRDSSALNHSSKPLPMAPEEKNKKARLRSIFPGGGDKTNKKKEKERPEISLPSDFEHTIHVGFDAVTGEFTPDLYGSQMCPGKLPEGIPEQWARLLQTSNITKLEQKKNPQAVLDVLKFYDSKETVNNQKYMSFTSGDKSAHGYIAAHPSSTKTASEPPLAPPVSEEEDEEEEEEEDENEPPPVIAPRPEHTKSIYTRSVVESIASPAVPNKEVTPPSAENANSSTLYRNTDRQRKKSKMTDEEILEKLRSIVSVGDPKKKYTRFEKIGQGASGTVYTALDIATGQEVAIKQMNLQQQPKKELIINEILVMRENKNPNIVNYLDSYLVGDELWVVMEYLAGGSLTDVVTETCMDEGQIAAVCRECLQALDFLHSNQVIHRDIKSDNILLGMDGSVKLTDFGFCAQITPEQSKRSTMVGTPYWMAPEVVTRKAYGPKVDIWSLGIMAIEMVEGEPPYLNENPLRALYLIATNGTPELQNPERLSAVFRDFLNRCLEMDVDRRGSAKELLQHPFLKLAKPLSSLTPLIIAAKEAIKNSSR
In words: KINOMEscan panel screen. It counts as binding. The settings on record: read-out: Percent Control(%).

In assay [34] the target is T29, RIOK3 (Homo sapiens, UniProt O14730).
T29 construct: purchased DiscoveRx KINOMEscan (Ambit Biosciences)
In words: KINOMEscan panel screen. It counts as binding. The settings on record: read-out: Percent Control(%).

In assay [35] the target is T30, TAOK1 (Homo sapiens, UniProt Q7L7X3).
T30 construct: purchased DiscoveRx KINOMEscan (Ambit Biosciences)
In words: KINOMEscan panel screen. It is filed as binding. To be noted: read-out: Percent Control(%).

Assay [36] has as its target T31, ERK2 (Homo sapiens, UniProt P28482).
T31 construct: purchased DiscoveRx KINOMEscan (Ambit Biosciences)
The assay can be described thus: KINOMEscan panel screen. To be noted: read-out: Percent Control(%). It counts as binding.

Assay [37] deals with T32, CAMK2B (Homo sapiens, UniProt Q13554).
T32 construct: purchased DiscoveRx KINOMEscan (Ambit Biosciences)
The assay can be described thus: KINOMEscan panel screen. To be noted: read-out: Percent Control(%). It is filed as binding.

Assay [38] addresses T33, TBK1 (Homo sapiens, UniProt Q9UHD2).
T33 construct: purchased DiscoveRx KINOMEscan (Ambit Biosciences)
In words: KINOMEscan panel screen. It counts as binding. To be noted: read-out: Percent Control(%).

T1 sequence (Q13177 whole entry): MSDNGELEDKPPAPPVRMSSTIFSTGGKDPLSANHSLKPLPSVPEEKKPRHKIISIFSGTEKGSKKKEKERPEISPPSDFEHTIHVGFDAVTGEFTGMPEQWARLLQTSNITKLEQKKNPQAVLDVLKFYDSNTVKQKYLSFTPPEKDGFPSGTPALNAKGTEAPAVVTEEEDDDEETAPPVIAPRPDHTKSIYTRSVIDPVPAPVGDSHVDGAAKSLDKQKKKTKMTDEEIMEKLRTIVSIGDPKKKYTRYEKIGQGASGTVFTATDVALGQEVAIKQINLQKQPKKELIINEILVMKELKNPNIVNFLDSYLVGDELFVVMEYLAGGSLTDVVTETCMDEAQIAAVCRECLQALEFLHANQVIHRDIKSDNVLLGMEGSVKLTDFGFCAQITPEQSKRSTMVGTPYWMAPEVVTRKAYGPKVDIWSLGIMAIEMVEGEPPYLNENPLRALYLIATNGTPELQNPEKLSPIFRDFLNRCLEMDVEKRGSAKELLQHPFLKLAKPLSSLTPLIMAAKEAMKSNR
T4 sequence (P54760 16-987): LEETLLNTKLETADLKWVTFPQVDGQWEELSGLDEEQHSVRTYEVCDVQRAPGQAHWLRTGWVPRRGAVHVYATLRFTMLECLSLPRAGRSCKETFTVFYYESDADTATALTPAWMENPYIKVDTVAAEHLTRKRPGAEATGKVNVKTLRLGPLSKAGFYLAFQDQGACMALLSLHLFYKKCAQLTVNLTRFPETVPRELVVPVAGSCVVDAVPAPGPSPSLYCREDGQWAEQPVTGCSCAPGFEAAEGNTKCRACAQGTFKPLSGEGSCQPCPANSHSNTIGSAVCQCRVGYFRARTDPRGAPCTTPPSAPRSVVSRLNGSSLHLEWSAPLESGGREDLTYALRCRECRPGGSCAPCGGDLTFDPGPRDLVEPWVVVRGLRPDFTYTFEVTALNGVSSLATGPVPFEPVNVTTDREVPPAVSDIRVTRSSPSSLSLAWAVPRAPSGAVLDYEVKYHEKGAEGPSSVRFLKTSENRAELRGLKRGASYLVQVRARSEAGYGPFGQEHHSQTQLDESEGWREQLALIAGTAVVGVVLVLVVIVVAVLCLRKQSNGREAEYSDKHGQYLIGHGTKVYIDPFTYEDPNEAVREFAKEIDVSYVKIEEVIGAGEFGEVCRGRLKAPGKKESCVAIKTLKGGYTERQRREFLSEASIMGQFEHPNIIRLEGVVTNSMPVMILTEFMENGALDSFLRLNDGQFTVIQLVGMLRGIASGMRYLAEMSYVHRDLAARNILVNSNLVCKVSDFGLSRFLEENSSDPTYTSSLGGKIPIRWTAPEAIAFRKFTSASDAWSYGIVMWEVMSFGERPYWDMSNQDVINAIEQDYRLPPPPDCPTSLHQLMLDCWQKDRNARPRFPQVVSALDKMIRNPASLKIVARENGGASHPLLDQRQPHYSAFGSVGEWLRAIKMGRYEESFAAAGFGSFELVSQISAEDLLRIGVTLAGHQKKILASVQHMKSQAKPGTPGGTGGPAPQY
T24 sequence (P06241 whole entry): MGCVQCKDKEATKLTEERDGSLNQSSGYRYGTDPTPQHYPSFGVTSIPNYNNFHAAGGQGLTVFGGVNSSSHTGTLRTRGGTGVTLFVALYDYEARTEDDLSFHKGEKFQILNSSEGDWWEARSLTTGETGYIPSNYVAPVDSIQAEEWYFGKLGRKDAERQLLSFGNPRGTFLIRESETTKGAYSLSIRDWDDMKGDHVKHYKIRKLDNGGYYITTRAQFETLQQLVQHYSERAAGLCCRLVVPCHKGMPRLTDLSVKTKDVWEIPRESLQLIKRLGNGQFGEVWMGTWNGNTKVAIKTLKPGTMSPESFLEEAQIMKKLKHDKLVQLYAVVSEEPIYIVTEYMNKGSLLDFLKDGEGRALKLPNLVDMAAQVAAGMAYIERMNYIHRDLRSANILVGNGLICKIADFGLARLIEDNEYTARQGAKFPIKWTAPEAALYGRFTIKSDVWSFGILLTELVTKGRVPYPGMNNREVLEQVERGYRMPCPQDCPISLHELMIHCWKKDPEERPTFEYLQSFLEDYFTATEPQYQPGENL
T8 sequence (P42338 whole entry): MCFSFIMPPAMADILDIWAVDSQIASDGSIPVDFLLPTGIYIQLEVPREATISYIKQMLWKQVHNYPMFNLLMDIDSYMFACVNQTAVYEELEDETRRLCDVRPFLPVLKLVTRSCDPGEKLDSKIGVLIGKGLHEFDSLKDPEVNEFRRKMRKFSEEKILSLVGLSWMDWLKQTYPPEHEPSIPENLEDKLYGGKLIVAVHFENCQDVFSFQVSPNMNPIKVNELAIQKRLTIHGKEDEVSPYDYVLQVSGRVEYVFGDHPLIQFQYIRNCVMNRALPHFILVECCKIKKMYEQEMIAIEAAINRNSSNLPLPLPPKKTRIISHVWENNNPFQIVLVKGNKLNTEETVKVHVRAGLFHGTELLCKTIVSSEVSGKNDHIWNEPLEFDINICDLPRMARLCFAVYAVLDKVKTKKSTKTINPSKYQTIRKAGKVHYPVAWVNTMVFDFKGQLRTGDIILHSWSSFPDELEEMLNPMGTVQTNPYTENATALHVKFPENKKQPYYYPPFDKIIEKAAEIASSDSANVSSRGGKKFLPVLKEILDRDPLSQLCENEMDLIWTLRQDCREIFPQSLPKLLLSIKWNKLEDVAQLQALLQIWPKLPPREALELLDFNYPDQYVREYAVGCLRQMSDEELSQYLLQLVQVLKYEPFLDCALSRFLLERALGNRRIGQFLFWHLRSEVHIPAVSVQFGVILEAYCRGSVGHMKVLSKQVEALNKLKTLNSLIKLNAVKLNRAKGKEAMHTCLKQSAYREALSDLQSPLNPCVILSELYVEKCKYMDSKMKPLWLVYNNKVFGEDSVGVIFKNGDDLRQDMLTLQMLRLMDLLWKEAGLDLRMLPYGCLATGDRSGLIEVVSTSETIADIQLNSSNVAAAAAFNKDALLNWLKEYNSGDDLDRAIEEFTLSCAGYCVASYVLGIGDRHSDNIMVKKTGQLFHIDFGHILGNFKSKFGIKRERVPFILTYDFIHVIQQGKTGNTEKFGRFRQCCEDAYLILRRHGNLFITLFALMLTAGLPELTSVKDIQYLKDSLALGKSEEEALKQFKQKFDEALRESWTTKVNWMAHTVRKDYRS

As for `O=C(Nc1ccc(Oc2ncnc3[nH]ncc23)cc1)Nc1ccc(Cl)c(C(F)(F)F)c1` [Compound 1, 1-(4-(1H-pyrazolo[3,4-d]pyrimidin-4-yloxy)phenyl)-3-(4-chloro-3-(trifluoromethyl)phenyl)urea], in [1], the IC50 (usually the midpoint of a concentration-inhibition curve) is more than 10 µM.

`CC(C)(C)c1cc(NC(=O)Nc2ccc(Oc3ncnc4[nH]ncc34)c(F)c2)no1` [SKLB-677, 1-(4-(1H-pyrazolo[3,4-d]pyrimidin-4-yloxy)-3-fluorophenyl)-3-(5-tert-butylisoxazol-3-yl)urea]: the remaining binding at 10 µM in assay [2] stood at 0%; in [3], 80%; in assay [4], 1%; in assay [5] it was 100%; in assay [7] it was 0.8%; in [9], 4.8%. Besides, the remaining binding at 10 µM in assay [10] worked out at 100%; in [11], 79%; in assay [13] it was 3.2%; in assay [14], 100%; in assay [15] it was 90%; in assay [16] it was 1.8%. Moreover, the remaining binding at 10 µM in assay [17] amounted to 11%; in assay [18] it was 42%; in assay [19], 51%; in assay [20], 3.2%; in assay [22] it was 3%; in assay [23], 36%. Moreover, the remaining binding at 10 µM in assay [24] was 100%; in assay [25] it was 94%; in [27], 66%; in assay [29], 15%; in assay [30] it was 47%; in assay [31], 74%. The remaining binding at 10 µM in assay [32] is 1%; in [33], 6.4%; in assay [34], 100%; in assay [35], 3.2%; in assay [36] it was 100%; in [37], 77%. Further, the remaining binding at 10 µM in assay [38] was found to be 70%. Moreover, the IC50 is more than 10 µM in assay [6]; 7.78 µM in [8]; more than 10 µM in assay [28] (Homo sapiens, PBMC, sample #7, normal PBMCs); more than 10 µM in assay [28] (sample #8, normal PBMCs); more than 10 µM in assay [28] (sample #9, normal PBMCs). The Kd (commonly a measure of binding affinity in units of concentration) in assay [12] is 0.0013 µM; in assay [21] it was 0.011 µM; in assay [26] it was more than 10 µM.

The record behind these values is article PMC4620497 (Scientific Reports, 2015).
